These results are taken from PMC9053816, “A polypeptide model for toxic aberrant proteins induced by aminoglycoside antibiotics” (PLoS ONE, 2022).

The subject of assay [1] is σ32 transcription factor.
Experimental: E, Western blot analysis of σ32 levels in cells following exposure to the indicated antibiotics for 20, 60, or 120 min as indicated. Cell extract from a non-induced culture was loaded in lane 1.
Equal volumes of cell cultures were centrifuged, and cell pellets were resuspended directly in 2X Laemmli sample buffer at a concentration of 5 OD600 units per ml based on culture OD600 at the time of sampling. To reduce viscosity, samples were sonicated using a cuphorn sonicator or passed through a 27-gauge needle prior to loading on SDS-polyacrylamide gels. Proteins were visualized either by staining gels directly with Coomassie Blue or after semi-dry electroblotting to immobilon membranes for Western blot analysis. Anti-σ32 monoclonal antibodies were purchased from BioLegend, San Diego, CA. Rabbit anti-DnaK and DnaJ serum was kindly provided by B. Bukau. Anti-GroEL antibodies were purchased from Sigma-Aldrich.
An aliquot of culture also was left untreated (NI) for comparison. Cultures were then incubated at 37°C with shaking, and cell growth was monitored by measuring culture optical density at 600 nm (OD600) using a microplate reader. B, samples of each culture were collected at 20, 60 and 90 min after treatment, and cells were lysed in 2X SDS-PAGE sample buffer at a concentration of 1.2 OD600 units per ml. Equal volumes of each sample were then analyzed by Western blotting, using antibodies against σ32 and σ70. Only the 20 min and 60 min samples of the Spectinomycin-treated culture were analyzed.
The test system of assay [2] is E. coli BL21 nucleoids. The assay can be described thus: Nucleoid conformation by fluorescence microscopy. The assay is classed as cell-based, Escherichia coli. The settings on record: for Nucleoid conformation: H33342 staining, BL21 (Fig 6, S6 Fig). On the procedure: (§1) Culture samples (0.3 ml) collected at the indicated times were centrifuged and the cell pellets were resuspended in 20–100 μl of Tris-buffered saline pH 8 (TBS) and held on ice. Cell suspensions were then stained with 1 μl of Hoechst 33342 (10 mg/ml stock solution was first diluted 1:100 in TBS). After incubation for 10 min on ice, 2 μl samples of cell suspension were mounted on coverslides using agarose blocks as described. Cells were then examined by epi-fluorescence microscopy, using a Zeiss Axiophot and a 63X oil immersion lens. Exposure times for 2-channel images (both transmitted and reflected light) were set automatically using on-board Zen 2011 software. In some experiments as noted, exposure times for reflected light images were fixed at 1 s, for comparison of relative fluorescence intensity. Brightfield images of E. coli cell aggregates were taken with a Nikon Eclipse T2 inverted microscope using a 20X lens and laser-based LED white light source, located at the Brookhaven National Laboratory Center for Functional Nanomaterials.
A culture sample also was left untreated (UT) for comparison. Cell samples were then collected after further incubation for 20, 40 or 60 min, washed with PBS, stained with H33342, and mounted on glass slides under agarose pads for fluorescence microscopy using a 40X oil immersion lens. The exposure time for each image was automatically set by microscope software. Scale bar = 20 μm. (TIF) Click here for additional data file.

For assay [3], the system named is E. coli BL21. Kind of assay: Cell viability (colony counts / spot dilution on LB agar). Format: cell-based, Escherichia coli. On the procedure:
(§2) All growth studies were performed in Luria-Bertani (LB) broth containing Penicillin G (150 μg/ml), using E. coli BL21 as the host strain except where noted. Frozen stocks of cell strains were first grown overnight at 30°C, without shaking, in 2 ml of LB containing PenG. The starter cultures were then diluted 1:100 in 3.5 ml of LB containing PenG, in plastic 15x90 mm tubes with loose-fitting caps, and the tubes were then tilted about 15–20 degrees from vertical and incubated at 37°C with shaking (300 rpm). Cell growth for all experiments except those shown in Fig 1 was monitored at the indicated times by measuring the optical density of culture samples (diluted 1:10 in saline) at 600 nm, using a Perkin Elmer Lambda 14 UV/VIS spectrophotometer and semi-micro glass cuvettes (1 ml sample volume). For the experiments shown in Fig 1, OD600 measurements were performed on 200 μl of undiluted culture using a 96-well plate reader. […] To measure cell viability, culture samples were serially diluted in LB broth, mixed with molten top agar and plated on LB agar containing PenG. The number of colonies was then counted after overnight incubation of plates at 37°C.
Supplementary file pone.0258794.s001.tif: S1 Fig Bactericidal effect of Kanamycin. Samples of an E. coli BL21 culture growing in LB broth were treated at early log phase (T = 0) with Cm (30 μg/ml) or Kan (50 μg/ml). After further incubation at 37°C for 30 or 60 min, samples of the untreated (UT) and antibiotic-treated cultures were diluted (serial 1:10), and 3 μl of each dilution was spotted onto an LB agar plate. The plate was then photographed after incubation overnight at 37°C. (TIF) Click here for additional data file.

Assay [4] concerns E. coli BL21. The assay can be described thus: Growth analysis (culture OD600). The assay is classed as cell-based, Escherichia coli. On the procedure: as §2
The test system of assay [5] is E. coli DnaK. The settings on record: by comparison with NR and σ32 peptides; cited from earlier work.
The subject of assay [6] is E. coli BL21 cells. The assay can be described thus: Hoechst 33342 uptake by fluorescence microscopy. Format: cell-based, Escherichia coli. The protocol: as §1
Assay [7] deals with E. coli BL21 nucleoids. On the set-up: method as in PMID 25250841. The settings on record: transcription inhibited; cited from earlier work.

“Also recorded” adds a separate entry of the source. Like-named read-outs stand apart in the source and are kept apart here.

On to `NC[C@H]1O[C@H](O[C@H]2[C@H](O)[C@@H](O[C@H]3O[C@H](CO)[C@@H](O)[C@H](N)[C@H]3O)[C@H](N)C[C@@H]2N)[C@H](O)[C@@H](O)[C@@H]1O` [Kan, kanamycin], for which the “σ32 concentration over time” value in assay [1] (20, 60 or 120 min of exposure (Fig 1E)) is “remained elevated”. In assay [1] (60 min after exposure, range of doses (Fig 1D)), the “σ32 level in cells” value is on record as “accumulated to high relative concentration”. In assay [2], the Nucleoid conformation result is recorded as “only transient”. In addition, the “Decrease of cell viability” value in assay [3] (first hour of exposure, Kan 50 μg/ml (S1 Fig)) is reported as 5–6 orders of magnitude. Besides, in assay [4] (low dose 3 μg/ml), the Cell division entry was “slowed but did not completely halt cell division”.

Take `CN[C@@H]1[C@H](O)[C@H](NC)[C@H]2O[C@@]3(O)C(=O)C[C@@H](C)O[C@H]3O[C@@H]2[C@H]1O` [spectinomycin]: in assay [1] (non-resistant cells, 20 μg/ml, 20 and 60 min (S2 Fig)), the “σ32 levels following exposure” value was “unchanged”.

Kemptide: the “Recognition by DnaK (earlier studies)” value in assay [5] is listed as “poorly recognized”.

Regarding `Cc1c2c(c(O)c3c(O)cccc13)C(=O)[C@]1(O)C(=O)C(C(N)=O)=C(O)[C@@H](N(C)C)[C@@H]1C2` [aTc, anhydrotetracycline], in assay [4] (0.2 μg/ml in culture medium), the Cell growth result was “not inhibited; also recorded: does not inhibit growth”.

`O=C(N[C@H](CO)[C@H](O)c1ccc([N+](=O)[O-])cc1)C(Cl)Cl` [Cm, chloramphenicol]: the Nucleoid conformation entry in assay [2] is on record as “radially condensed”. Moreover, the “Time until nucleoids radially condensed” value in assay [2] (after induction of expression or after exposure) lay within 30 to 45 min. Besides, in assay [3] (30 μg/ml, samples at 0, 1, 2 and 5 h (Fig 2E)), the “Cell viability following growth arrest” value is “remained viable for several hours”. Also, the “Cell viability during exposure” value in assay [3] (Cm 30 μg/ml, 30 or 60 min (S1 Fig)) was “fully retained”. Moreover, the “Cell viability at higher concentration” value in assay [3] (higher concentration than 30 μg/ml (200 μg/ml, Fig 2E)) is “increasingly toxic”. Moreover, the “Exposure time set automatically by camera software (H33342 fluorescence)” value in assay [6] (10 min after ARF48 induction or 60 min after Cm 30 or 200 μg/ml, non-induced culture 1.7 s) came to 0.22 s. Besides, the “Uptake of H33342 following exposure” value in assay [6] (Cm 30 or 200 μg/ml (Fig 6)) is on record as “enhanced”.

For the molecule `CO[C@H]1/C=C/O[C@@]2(C)Oc3c(C)c(O)c4c(O)c(c(/C=N/N5CCN(C)CC5)c(O)c4c3C2=O)NC(=O)/C(C)=C\C=C\[C@H](C)[C@H](O)[C@@H](C)[C@@H](O)[C@@H](C)[C@H](OC(C)=O)[C@@H]1C` [rifampicin], the Nucleoid conformation entry in assay [7] was “transient condensation”.
